The experiment has as its target AMPK. In words: AMPK activation, enzyme-linked immunosorbent assay. To be noted: EC50 for AMPK activation, ELISA. Format: biochemical. In outline:
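Test compounds were added, and kinase activation was then detected by immunoassay following established kit procedures.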
`N#Cc1ccc(CN2CCC(NC(=O)c3ccc(C(=O)N4CCC(Cc5ccc(F)cc5)CC4)cn3)CC2)cc1` [Compound 130, N-(1-(4-cyanobenzyl)piperidin-4-yl)-5-(4-(4-fluorobenzyl)piperidine-1-carbonyl)picolinamide] came in with an EC50 of less than 500 nM.
As for `CS(=O)(=O)c1ccc(OC2CCN(C(=O)c3ccc(C(=O)NC4CCN(Cc5ccc(C#N)cc5)CC4)cn3)CC2)cc1` [Compound 397, N-(1-(4-cyanobenzyl)piperidin-4-yl)-6-(4-(4-(methylsulfonyl)phenoxy)piperidine-1-carbonyl)nicotinamide], the EC50 was less than 500 nM.
`CC(C)N1CCN(C(=O)c2ccc(C(=O)NC3CCN(Cc4ccc(C#N)cc4)CC3)nc2)CC1` [Compound 84, N-(1-(4-cyanobenzyl)piperidin-4-yl)-5-(4-isopropylpiperazine-1-carbonyl)picolinamide]: the EC50 is 1000 to 5000 nM.
Compound `N#Cc1ccc(CN2CCC(NC(=O)c3ccc(C(=O)N4CCC(Oc5cccc(C#N)c5)CC4)cn3)CC2)cc1` [Compound 155, N-(1-(4-cyanobenzyl)piperidin-4-yl)-5-(4-(3-cyanophenoxy)piperidine-1-carbonyl)picolinamide] yielded an EC50 of less than 500 nM.
Next, `O=C(Nc1ccc(Oc2ccc(F)cc2)nc1)c1ccc(C(=O)N2CCC(Oc3ccc(NS(=O)(=O)C4CC4)cc3)CC2)nc1` [Compound 449, 6-(4-(4-(cyclopropanesulfonamido)phenoxy)piperidine-1-carbonyl)-N-(6-(4-fluorophenoxy)pyridin-3-yl)nicotinamide]: 1000 to 5000 nM.
Next, `N#Cc1ccc(Oc2ccc(NC(=O)c3ccc(C(=O)N4CCC(Oc5ccc(S(F)(F)(F)(F)F)cc5)CC4)nc3)cn2)cc1` [Compound 497, N-(6-(4-cyanophenoxy)pyridin-3-yl)-6-(4-(4-(pentafluorosulfanyl)phenoxy)piperidine-1-carbonyl)nicotinamide]: less than 500 nM; `O=C(N[C@H]1CC[C@@H](Oc2ccc(F)cc2)CC1)c1ccc(C(=O)N2CCC(Oc3ccc(F)cc3)CC2)cn1` [Compound 312, N-((cis)-4-(4-fluorophenoxy)cyclohexyl)-5-(4-(4-fluorophenoxy)piperidine-1-carbonyl)picolinamide]: less than 500 nM; `COc1ccc(CN2CCC(N(C)C(=O)c3ccc(C(=O)N4CCC(C(=O)c5ccc(OC)cc5)CC4)nc3)CC2)cc1` [Compound 484, 6-(4-(4-methoxybenzoyl)piperidine-1-carbonyl)-N-(1-(4-methoxybenzyl)piperidin-4-yl)-N-methylnicotinamide]: less than 500 nM.
In the case of `COc1ccc(CN2CCC(NC(=O)c3ccc(C(=O)N4CCC(Oc5cccc(NC(C)=O)c5)CC4)nc3)CC2)cc1` [Compound 412, 6-(4-(3-acetamidophenoxy)piperidine-1-carbonyl)-N-(1-(4-methoxybenzyl)piperidin-4-yl)nicotinamide] it was 1000 to 5000 nM; in that of `N#Cc1ccc(CN2CCC(NC(=O)c3ccc(C(=O)N4CCC(Oc5ccc(C#N)cc5)CC4)nc3)CC2)cc1` [Compound 323, N-(1-(4-cyanobenzyl)piperidin-4-yl)-6-(4-(4-cyanophenoxy)piperidine-1-carbonyl)nicotinamide], less than 500 nM.
The compound `COc1ccc(C(=O)C2CCN(C(=O)c3ccc(C(=O)NC4CCN(Cc5ccc(C#N)cc5)CC4(F)F)cn3)CC2)cc1` (centres unmarked) [Compound 498, N-(1-(4-cyanobenzyl)-3,3-difluoropiperidin-4-yl)-6-(4-(4-methoxybenzoyl)piperidine-1-carbonyl)nicotinamide] displayed an EC50 of less than 500 nM.
Next, `N#Cc1ccc(CN2CCC(NC(=O)c3ccc(C(=O)N4CCC(C(O)c5ccc(F)cc5)CC4)cn3)CC2)cc1` (centres unmarked) [Compound 142, N-(1-(4-cyanobenzyl)piperidin-4-yl)-5-(4-((4-fluorophenyl)(hydroxy)methyl)piperidine-1-carbonyl)picolinamide]: less than 500 nM; `N#Cc1ccc(CN2CCC(NC(=O)c3ccc(C(=O)N4CCC(C(=O)c5ccc(-n6cccn6)cc5)CC4)cn3)CC2)cc1` [Compound 375, 5-(4-(4-(1H-pyrazol-1-yl)benzoyl)piperidine-1-carbonyl)-N-(1-(4-cyanobenzyl)piperidin-4-yl)picolinamide]: less than 500 nM.
`O=C(NC1CCN(Cc2ccc(F)cc2)CC1)c1ccc(C(=O)N2CCC(C(=O)c3ccc(-n4cccn4)cc3)CC2)nc1` [Compound 392, 6-(4-(4-(1H-pyrazol-1-yl)benzoyl)piperidine-1-carbonyl)-N-(1-(4-fluorobenzyl)piperidin-4-yl)nicotinamide] showed an EC50 of less than 500 nM.
In turn, `N#Cc1ccc(CN2CCC(NC(=O)c3ccc(C(=O)N4CCN(C(=O)C5CCCCC5)CC4)cn3)CC2)cc1` [Compound 89, N-(1-(4-cyanobenzyl)piperidin-4-yl)-5-(4-(cyclohexanecarbonyl)piperazine-1-carbonyl)picolinamide] returned an EC50 of 1000 to 5000 nM.
`CC(C)N1CCN(C(=O)c2ccc(C(=O)N3CCN(CCc4ccccc4)CC3)nc2)CC1` [Compound 91, (4-isopropylpiperazin-1-yl)(6-(4-phenethylpiperazine-1-carbonyl)pyridin-3-yl)methanone] had a concentration giving a half-maximal response (EC50) greater than 10000 nM.
Turning to `CC(=O)Nc1cccc(OC2CCN(C(=O)c3ccc(C(=O)Nc4ccc(Oc5ccc(F)cc5)nc4)cn3)CC2)c1` [Compound 414, 6-(4-(3-acetamidophenoxy)piperidine-1-carbonyl)-N-(6-(4-fluorophenoxy)pyridin-3-yl)nicotinamide], the EC50 fell in the range of 1000 to 5000 nM.
Compound `N#Cc1ccc(CN2CCc3ccc(NC(=O)c4ccc(C(=O)NCc5ccc(F)cc5)cn4)cc3C2)cc1` [Compound 144, N2-(2-(4-cyanobenzyl)-1,2,3,4-tetrahydroisoquinolin-7-yl)-N5-(4-fluorobenzyl)pyridine-2,5-dicarboxamide] showed an EC50 of 500 to 1000 nM.
In the case of `CS(=O)(=O)c1ccc(C(=O)C2CCN(C(=O)c3ccc(C(=O)NC4CCN(Cc5ccc(F)cc5)CC4)cn3)CC2)cc1` [Compound 222, N-(1-(4-fluorobenzyl)piperidin-4-yl)-6-(4-(4-(methylsulfonyl)benzoyl)piperidine-1-carbonyl)nicotinamide] it was 1000 to 5000 nM.
For the compound `N#Cc1ccc(CN2CCC(NC(=O)c3ccc(C(=O)N4CCN(Cc5ccncc5)CC4)cn3)CC2)cc1` [Compound 103, N-(1-(4-cyanobenzyl)piperidin-4-yl)-5-(4-(pyridin-4-ylmethyl)piperazine-1-carbonyl)picolinamide], the EC50 is less than 500 nM.
Next, `COc1ccc(-c2ccc(Nc3ccc(C(=O)NC4CCN(Cc5ccccc5)CC4)nc3)cc2)cc1` [Compound 120, N-(1-benzylpiperidin-4-yl)-5-(4′-methoxybiphenyl-4-ylamino)picolinamide]: greater than 10000 nM; `CS(=O)(=O)Nc1ccc(CN2CCC(NC(=O)c3ccc(C(=O)N4CCC(C(=O)c5ccc(F)cc5F)CC4)nc3)CC2)cc1` [Compound 216, 6-(4-(2,4-difluorobenzoyl)piperidine-1-carbonyl)-N-(1-(4-(methylsulfonamido)benzyl)piperidin-4-yl)nicotinamide]: greater than 10000 nM.
In the case of `CS(=O)(=O)c1ccc(OC2CCN(C(=O)c3ccc(C(=O)Nc4ccc(S(=O)(=O)c5ccc(F)cc5)nc4)nc3)CC2)cc1` [Compound 261, N-(6-(4-fluorophenylsulfonyl)pyridin-3-yl)-5-(4-(4-(methylsulfonyl)phenoxy)piperidine-1-carbonyl)picolinamide] it was less than 500 nM.

These data come from patent US9663496B2, “AMPK-activating heterocyclic compounds and methods for using the same” (Rigel Pharmaceuticals, Inc., priority 2010, dated 2017).
